45 compounds from US20250327793A1, “METHODS OF IDENTIFYING COMPOUNDS THAT MODULATE LAUNDRY MALODOR, MOLDY MALODOR, OR SWEAT MALODOR” (Firmenich SA, priority 2017, published 2025) can be followed below.

Where a name gives a salt, the structure may show the parent alone. Bounds are passed on as bounds.

The assay concerns the target T1, OR51E1 olfactory receptor (Homo sapiens, UniProt Q8TCB6, K299R).
T1 construct: expressed in transfected cells
T1 sequence (Q8TCB6 2-318 K299R limits assumed): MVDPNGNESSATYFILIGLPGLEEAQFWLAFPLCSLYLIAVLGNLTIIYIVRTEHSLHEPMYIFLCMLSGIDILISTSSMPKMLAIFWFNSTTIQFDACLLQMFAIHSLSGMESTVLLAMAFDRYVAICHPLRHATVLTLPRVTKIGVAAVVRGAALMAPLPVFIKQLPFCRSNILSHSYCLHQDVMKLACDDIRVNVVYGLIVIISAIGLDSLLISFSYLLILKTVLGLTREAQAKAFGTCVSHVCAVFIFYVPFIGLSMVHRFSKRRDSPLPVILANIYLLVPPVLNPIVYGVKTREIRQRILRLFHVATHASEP
Kind of assay: Butyric acid olfactory receptor antagonist cell-based inhibitory dose-response assay.

The mark [1] stands for this setting: Table 4, butyric acid at single activating concentration (EC94).
Setting [2] is: Table 5, agonist concentration not given.
[3] abbreviates: Table 5, butyric acid olfactory receptor antagonists, agonist concentration not given.

Regarding `COC1C(C)(C)CCCC12CC=CC2` (centres unmarked) [10-methoxy-9,9-dimethylspiro[4.5]dec-2-ene], for the setting “Table 4, butyric acid at EC94”, the “Inhibition (%)” value turned out to be 33%. Besides, the IC50 (usually the concentration that gives 50% inhibition) under setting [1] worked out at 120 µM. The corresponding values for `CC(=O)OC1C(C)(C)CCC12CC=CC2` (centres unmarked) [(8,8-dimethylspiro[4.4]non-2-en-9-yl) acetate] are 107% and 488 µM. Turning to `CC(=O)OC1C(C)(C)CCCC12CC(C)C(C)C2` (centres unmarked) [(2,3,9,9-tetramethylspiro[4.5]decan-10-yl) acetate], under “Table 4, butyric acid at EC94”, the “Inhibition (%)” value was 62%. This compound also yielded an IC50 under setting [1] of 51.4 µM. On to `CC(=O)OC(C)C1(C)CC(C)C23CCC(CC12)C3` (centres unmarked) [1-(2,4-dimethyl-4-tricyclo[5.2.1.0^{1,5}]decanyl)ethyl acetate], for which the “Inhibition (%)” value under setting [2] stood at 34%. This compound displayed an IC50 under setting [3] of 54.8 µM.

For the compound `CC1=C(C)CC2(CCC(C)(C)C2=O)C1` [2,3,8,8-tetramethylspiro[4.4]non-2-en-9-one], under “Table 4, butyric acid at EC94”, the “Inhibition (%)” value is listed as 10%. Under setting [1], this compound gave an IC50 of 198 µM.

With `C=CCC1(C(C)C=C)CCCC(C)(C)C1=O` (centres unmarked) [2-but-3-en-2-yl-6,6-dimethyl-2-prop-2-enylcyclohexan-1-one], where the note is “Table 4, butyric acid at EC94”, the “Inhibition (%)” value came out at 115%. Also, under setting [1], 76.4 µM corresponded to half-maximal inhibition (IC50).

Take `COC1C(C)(C)CCC12CC=CC2` (centres unmarked) [9-methoxy-8,8-dimethylspiro[4.4]non-2-ene]: the “Inhibition (%)” value (Table 4, butyric acid at EC94) came to 100%. This compound came in with an IC50 under setting [1] of 238 µM. For `COC1C(C)(C)CCC12CCCC2` (centres unmarked) [4-methoxy-3,3-dimethylspiro[4.4]nonane], in that order: 105% and 337 µM. For `CC(=O)OC(C1C(C)C=C(C)CC1C)C(C)(C)C` (stereo not drawn) [[2,2-dimethyl-1-(2,4,6-trimethylcyclohex-3-en-l-yl)propyl] acetate], in that order: 89% and 52.6 µM. For `CC1=C(C)CC2(CCCC(C)(C)C2O)C1` (centres unmarked) [2,3,9,9-tetramethylspiro[4.5]dec-2-en-10-ol], in that order: 16% and 78.7 µM. Under setting [3], `CC(=NO)C1(C)C(C)C(C)[C@]23CC[C@H](CC12)C3` (some centres unmarked) [~{N}-[1-[(1~{R},7~{R})-2,3,4-trimethyl-4-tricyclo[5.2.1.0^{1,5}]decanyl]ethylidene]hydroxylamine] showed an IC50 of 79.7 µM.

Take `CC(=O)OC1C(C)(C)CCCC12CC=CC2C` (centres unmarked) [(4,9,9-trimethylspiro[4.5]dec-2-en-10-yl) acetate]: the “Inhibition (%)” value (Table 4, butyric acid at EC94) was found to be 106%. For the same compound, under setting [1], half-maximal inhibition (IC50) was put at 48.5 µM.

In the case of `CC1=CC(C)C2(CCCC(C)(C)C2=O)C1` (centres unmarked) [2,4,9,9-tetramethylspiro[4.5]dec-2-en-10-one], the “Inhibition (%)” value (Table 4, butyric acid at EC94) is given as 63%. Also, half-maximal inhibition under setting [1] (IC50) required 110 µM. The corresponding values for `CC1(C)CCCC2(CC=CC2)C1O` (centres unmarked) [9,9-dimethylspiro[4.5]dec-2-en-10-ol] are 91% and 44.1 µM. Take `CC(=O)C1(C)CC(C)C23CCC(CC12)C3` (centres unmarked) [1-(2,4-dimethyl-4-tricyclo[5.2.1.0^{1,5}]decanyl)ethanone]: under setting [2], the “Inhibition (%)” value was found to be 26%. Under setting [3], the IC50 was found to be 60.5 µM. `CC(=O)OC(C1C(C)CC(C)CC1C)C(C)(C)C` (centres unmarked) [[2,2-dimethyl-1-(2,4,6-trimethylcyclohexyl)propyl] acetate]: the “Inhibition (%)” value (Table 4, butyric acid at EC94) is reported as 101%. This compound also yielded an IC50 under setting [1] of 242 µM. The corresponding values for `CC1=CC(C)C2(CCCC(C)(C)C2O)C1` (centres unmarked) [2,4,9,9-tetramethylspiro[4.5]dec-2-en-10-ol] are 22% and 81.6 µM. For `CC1C=CCC(C)C1C(O)C(C)(C)C` (centres unmarked) [1-(2,6-dimethylcyclohex-3-en-1-yl)-2,2-dimethylpropan-1-ol], in that order: 31% and 321 µM.

For `CC(=O)OC1C(C)(C)CCCC12CC=C(C)CC2C` (centres unmarked) [(3,5,10,10-tetramethylspiro[5.5]undec-2-en-11-yl) acetate], for the setting “Table 4, butyric acid at EC94”, the “Inhibition (%)” value stood at 104%. The compound further displayed an IC50 under setting [1] of 71.4 µM. For the compound `CC1C(C)C23CCC(CC2C1(C)C=O)C3` (centres unmarked) [2,3,4-trimethyltricyclo[5.2.1.0^{1,5}]decane-4-carbaldehyde], the “Inhibition (%)” value under setting [2] amounted to 28%. Under setting [3], the IC50 came to 270 µM. In the case of `CC1CC=CCC12CCCC(C)(C)C2OC=O` (centres unmarked) [(5,10,10-trimethylspiro[5.5]undec-2-en-11-yl) formate], the “Inhibition (%)” value (Table 4, butyric acid at EC94) is 129%. In addition, under setting [1], the IC50 was 44.4 µM. For `CC(=O)OC1C(C)(C)CCCC12CC(C)=C(C)C2` (centres unmarked) [(2,3,9,9-tetramethylspiro[4.5]dec-2-en-10-yl) acetate], in that order: 116% and over 600 µM. For `C=C(C)CC1(CC(=C)C)CCC(C)(C)C1O` (centres unmarked) [2,2-dimethyl-5,5-bis(2-methylprop-2-enyl)cyclopentan-1-ol], in that order: 119% and 35.1 µM. The corresponding values for `C=C1C(C)(C)CCCC12CC1(C)OC1(C)C2` (centres unmarked) [1,1′,1′,5-tetramethyl-2′-methylidenespiro[6-oxabicyclo[3.1.0]hexane-3,3′-cyclohexane]] are 37% and 75.7 µM.

As to `CC(=O)O[C@H]([C@H]1CCCC[C@@H]1C)C(C)(C)C` (racemic) [[(1~{R})-2,2-dimethyl-1-[(1~{S},2~{S})-2-methylcyclohexyl]propyl] acetate], the IC50 under setting [1] turned out to be 170 µM. Consider `CC(=O)OC1C(C)(C)CCCC12C(C)C=CCC2C` (centres unmarked) [(1,5,10,10-tetramethylspiro[5.5]undec-3-en-11-yl) acetate], for which the “Inhibition (%)” value (Table 4, butyric acid at EC94) is listed as 72%. In addition, inhibition under setting [1] was half-maximal at 72.3 µM (IC50).

Regarding `CC(=O)OCC1(C)C(C)C(C)C23CCC(CC12)C3` (centres unmarked) [(2,3,4-trimethyl-4-tricyclo[5.2.1.0^{1,5}]decanyl)methyl acetate], under setting [2], the “Inhibition (%)” value is 27%. Further, the IC50 under setting [3] amounted to 60.8 µM. Turning to `CC1(C)CCCC2(CC=CC2)C1=O` [9,9-dimethylspiro[4.5]dec-2-en-10-one], the “Inhibition (%)” value (Table 4, butyric acid at EC94) was 23%. Moreover, the IC50 under setting [1] stood at 135 µM. The corresponding values for `CC(=O)OC1C(C)(C)CCCC12CC(C)(C)C(C)(C)C2` (centres unmarked) [(2,2,3,3,9,9-hexamethylspiro[4.5]decan-10-yl) acetate] are 39% and 425 µM. On to `CC1CCCCC12CCCCC2O` (centres unmarked) [11-methylspiro[5.5]undecan-5-ol], for which the “Inhibition (%)” value (Table 4, butyric acid at EC94) is listed as 52%. The same compound yielded an IC50 under setting [1] of 68.8 µM. For `CC(=NO)C1C(C)C(C)C23CCC(CC12)C3` (centres unmarked) [~{N}-[1-[(1~{S},7~{R})-2,3-dimethyl-4-tricyclo[5.2.1.0^{1,5}]decanyl]ethylidene]hydroxylamine], under setting [2], the “Inhibition (%)” value is recorded as 19%. Besides, the IC50 under setting [3] was determined as 76.6 µM. `CC(=O)[C@@]1(C)C(C)[C@H](C)[C@@]23CC[C@H](CC12)C3` (some centres unmarked) [1-[(1~{S},2~{S},4~{S},7~{R})-2,3,4-trimethyl-4-tricyclo[5.2.1.0^{1,5}]decanyl]ethanone] returned an IC50 under setting [3] of 32.6 µM.

In the case of `CC(=O)OC1C(C)(C)CCCC12CC(C)=CC2C` (centres unmarked) [(2,4,9,9-tetramethylspiro[4.5]dec-2-en-10-yl) acetate], for the setting “Table 4, butyric acid at EC94”, the “Inhibition (%)” value stood at 131%. Under setting [1], this compound showed an IC50 of 34.8 µM.

`CC(=O)OC(C)C1CC(C)C23CCC(CC12)C3` (centres unmarked) [1-(2-methyl-4-tricyclo[5.2.1.0^{1,5}]decanyl)ethyl acetate]: the “Inhibition (%)” value under setting [2] was found to be 23%. Further, the IC50 under setting [3] came to 97 µM. For the compound `CC1=CCC2(CCCCC2O)C(C(C)C)C1` (centres unmarked) [3-methyl-5-propan-2-ylspiro[5.5]undec-2-en-11-ol], for the setting “Table 4, butyric acid at EC94”, the “Inhibition (%)” value turned out to be 144%. Under setting [1], the IC50 came out at 366 µM. In turn, `CC1CC(C)(C=NO)C2C[C@H]3CC[C@]12C3` (some centres unmarked) [~{N}-[[(1~{S},7~{R})-2,4-dimethyl-4-tricyclo[5.2.1.0^{1,5}]decanyl]methylidene]hydroxylamine] displayed an IC50 under setting [3] of 88.5 µM. For `C=CCC1(OC)C(C)CCCC1C` (centres unmarked) [1-methoxy-2,6-dimethyl-1-prop-2-enylcyclohexane], the “Inhibition (%)” value (Table 4, butyric acid at EC94) was 61%. Besides, it took 100 µM to reach half-maximal inhibition under setting [1] (IC50). For `CC1=C(C)CC2(CCCC(C)(C)C2OC=O)C1` (centres unmarked) [(2,3,9,9-tetramethylspiro[4.5]dec-2-en-10-yl) formate], in that order: 69% and 25.9 µM. The corresponding values for `C[C@H]1CCCC2(CCCC[C@@H]2C)[C@@H]1O` (single isomer, unassigned) [(4~{S},5~{R},6~{S},11~{S})-4,11-dimethylspiro[5.5]undecan-5-ol] are 54% and 76.9 µM. Regarding `CC1CC2(CCCC(C)(C)C2O)CC1C` (centres unmarked) [2,3,9,9-tetramethylspiro[4.5]decan-10-ol], for the setting “Table 4, butyric acid at EC94”, the “Inhibition (%)” value turned out to be 12%. This compound returned an IC50 under setting [1] of 120 µM. The corresponding values for `CC(=O)OC1C(C)(C)CCCC12CC=CC2` (centres unmarked) [(9,9-dimethylspiro[4.5]dec-2-en-10-yl) acetate] are 32% and 90.3 µM. For the compound `C=C(C)CC1(CC(=C)C)CCCC(C)(C)C1O` (centres unmarked) [2,2-dimethyl-6,6-bis(2-methylprop-2-enyl)cyclohexan-1-ol], the “Inhibition (%)” value (Table 4, butyric acid at EC94) is 110%. The half-inhibitory concentration (IC50) under setting [1] is 125 µM. For `C=C(C)CC1(CC(=C)C)CCC(C)(C)C1=O` [2,2-dimethyl-5,5-bis(2-methylprop-2-enyl)cyclopentan-1-one], in that order: 82% and 51.7 µM. For `C=C(C)CC1(CC(=C)C)CCCC(C)(C)C1=O` [2,2-dimethyl-6,6-bis(2-methylprop-2-enyl)cyclohexan-1-one], in that order: 103% and 46.6 µM.

As for `CC1C=CCC12CCCC(C)(C)C2=O` (centres unmarked) [4,9,9-trimethylspiro[4.5]dec-2-en-10-one], where the note is “Table 4, butyric acid at EC94”, the “Inhibition (%)” value came to 102%. Half-maximal inhibition under setting [1] (IC50) required 268 µM.
